Laboratory results: patent US8415376B2, “Inhibitors of PI3 kinase” (Amgen Inc., priority 2008, dated 2013)

Columns and labels:
PI3Kβ = biological target: T1, PI3Kβ (Homo sapiens, UniProt P42338); assay: In vitro PI3 kinase enzyme assay (PI3K ATP loss), beta; type: biochemical; conditions: average if run more than once
T1 construct: Full length p110 subunits of PI3K α, β and δ, N-terminally labeled with polyHis tag; polyHis (N); made in house; host or cells: Sf9 insect cells (baculovirus)
Experimental: (§1) Full length p110 subunits of PI3K α, β and δ, N-terminally labeled with polyHis tag, can be co-expressed with p85 with Baculo virus expression vectors in sf9 insect cells. P110/p85 heterodimers can be purified by sequential Ni-NTA, Q-HP, Superdex-100 chromatography. Purified α, β and δ isozymes can be stored at −20° C. in 20 mM Tris, pH 8, 0.2M NaCl, 50% glycerol, 5 mM DTT, 2 mM Na cholate. […] The γ isozyme can be purified by sequential Ni-NTA, Superdex-200, Q-HP chromatography. The γ isozyme can be stored frozen at −80° C. in NaH2PO4, pH 8, 0.2M NaCl, 1% ethylene glycol, 2 mM β-mercaptoethanol.
(§2) In Vitro PI3 Kinase Enzyme Assays (PI3K Atploss)
(§3) PI3K enzyme assays (alpha, beta, delta and gamma) can be performed in 25 μL with the above final concentrations of components in white polyproplyene plates. Phosphatidyl inositol phosphoacceptor, PtdIns(4,5)P2 (eg. P4508) can be obtained from Echelon Biosciences, Salt Lake City, Utah. […] Test compounds can be dissolved in DMSO and diluted with three-fold serial dilutions. The compound in DMSO (1 μL) may be added per test well, and the inhibition relative to reactions containing no compound, with and without enzyme can be determined After assay incubation at RT, the reaction can be stopped and residual ATP can be determined by addition of an equal volume of a commercial ATP bioluminescence kit (Perkin Elmer EasyLite, Perkin Elmer, Waltham, Mass.) according to the manufacturer's instructions, and detected using an Analyst GT luminometer.

PI3Kα = biological target: T2, PI3Kα (Homo sapiens, UniProt P42336); assay: In vitro PI3 kinase enzyme assay (PI3K ATP loss), alpha; type: biochemical; conditions: average if run more than once; read-out: ATP Loss (PBKα) IC50 μM (Avg)
T2 construct: Full length p110 subunits of PI3K α, β and δ, N-terminally labeled with polyHis tag; polyHis (N); made in house; host or cells: Sf9 insect cells (baculovirus)
T2 sequence (P42336 whole entry): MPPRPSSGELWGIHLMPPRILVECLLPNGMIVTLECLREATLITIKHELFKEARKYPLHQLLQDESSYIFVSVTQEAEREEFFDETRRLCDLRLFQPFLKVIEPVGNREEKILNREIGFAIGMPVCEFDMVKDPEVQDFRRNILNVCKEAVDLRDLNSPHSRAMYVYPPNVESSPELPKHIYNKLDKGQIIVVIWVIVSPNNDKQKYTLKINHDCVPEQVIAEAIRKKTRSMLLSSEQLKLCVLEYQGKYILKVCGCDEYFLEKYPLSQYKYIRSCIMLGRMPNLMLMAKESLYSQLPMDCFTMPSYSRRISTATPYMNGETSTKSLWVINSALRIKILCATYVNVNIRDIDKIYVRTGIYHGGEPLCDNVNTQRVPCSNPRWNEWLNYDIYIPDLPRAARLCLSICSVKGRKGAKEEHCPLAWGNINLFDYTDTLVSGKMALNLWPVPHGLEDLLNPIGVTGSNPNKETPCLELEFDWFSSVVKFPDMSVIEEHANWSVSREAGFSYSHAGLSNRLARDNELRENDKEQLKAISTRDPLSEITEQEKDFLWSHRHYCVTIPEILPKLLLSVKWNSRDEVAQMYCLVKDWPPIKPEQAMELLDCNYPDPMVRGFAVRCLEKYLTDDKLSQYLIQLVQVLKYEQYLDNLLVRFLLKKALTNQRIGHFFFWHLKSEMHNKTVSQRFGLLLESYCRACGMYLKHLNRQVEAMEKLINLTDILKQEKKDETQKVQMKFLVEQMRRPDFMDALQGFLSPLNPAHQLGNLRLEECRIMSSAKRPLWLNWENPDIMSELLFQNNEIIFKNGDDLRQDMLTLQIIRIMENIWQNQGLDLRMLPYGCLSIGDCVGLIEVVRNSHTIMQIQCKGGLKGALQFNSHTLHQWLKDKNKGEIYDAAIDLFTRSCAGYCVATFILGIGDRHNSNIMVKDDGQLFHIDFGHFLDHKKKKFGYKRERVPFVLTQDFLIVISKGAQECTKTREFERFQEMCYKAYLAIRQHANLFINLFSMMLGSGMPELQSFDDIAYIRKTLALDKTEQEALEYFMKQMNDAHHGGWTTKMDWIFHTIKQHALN
T2 sequence (P27986 whole entry partner): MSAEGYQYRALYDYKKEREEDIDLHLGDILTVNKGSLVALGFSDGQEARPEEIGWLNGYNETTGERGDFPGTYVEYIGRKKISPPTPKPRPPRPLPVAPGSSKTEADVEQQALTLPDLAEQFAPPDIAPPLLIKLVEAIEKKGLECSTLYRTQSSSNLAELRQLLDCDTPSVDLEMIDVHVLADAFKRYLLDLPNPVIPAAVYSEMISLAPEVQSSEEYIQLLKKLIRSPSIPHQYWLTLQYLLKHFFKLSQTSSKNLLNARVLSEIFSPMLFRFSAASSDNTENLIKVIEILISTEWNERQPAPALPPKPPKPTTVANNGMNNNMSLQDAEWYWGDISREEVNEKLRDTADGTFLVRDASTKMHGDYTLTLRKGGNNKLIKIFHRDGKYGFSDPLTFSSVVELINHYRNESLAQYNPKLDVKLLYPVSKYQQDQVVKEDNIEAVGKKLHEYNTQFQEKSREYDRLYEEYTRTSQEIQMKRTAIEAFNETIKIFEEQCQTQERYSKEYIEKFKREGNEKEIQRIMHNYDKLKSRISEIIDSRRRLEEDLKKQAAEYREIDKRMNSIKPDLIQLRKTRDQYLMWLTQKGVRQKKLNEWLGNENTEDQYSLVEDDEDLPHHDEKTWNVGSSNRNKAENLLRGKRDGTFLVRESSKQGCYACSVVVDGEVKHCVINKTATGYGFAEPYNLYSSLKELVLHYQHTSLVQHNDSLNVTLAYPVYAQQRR
Experimental: as §1, §2, §3

[1] = system: phosphorylation of Akt at Ser473; assay: Cell-based phospho-Akt Ser473 assay (HCT116 cell); conditions: HCT 116 human colon carcinoma cells, IGF-1 stimulated; average
From the text: Cell-Based Phospho-Akt Ser473 Assay (HCT116 Cell)
This assay determines the ability of a compound to inhibit the phosphorylation of […] in Akt using a MSD based sandwich immunoassay (Meso Scale Detection, Meso Scale Discovery (MSD), Gaithersburg, Md.). HCT 116 human colon carcinoma cell lines can be grown in McCoy's 5A growth medium (GIBCO, Carlsbad, Calif.) containing 10% FBS (GIBCO, Carlsbad, Calif.) and X1 Penicillin-streptomycin-glutamine (GIBCO, Carlsbad, Calif.). Prior to the assay, cells can be detached from the culture flask with trypsin, and re-suspended in complete media to give a final concentration of 1.6×10^5 cells per mL. Aliquots (100 μl) of the HCT116 cell suspension can be seeded into each well of a 96 well tissue culture plate to give a final density of 16,000 cells per well. Cells can then be incubated overnight at 37° C.
The following day the cells can be treated with serially diluted test compounds and incubated for 2 hours at 37° C. The culture media on the HCT 116 cells can be replaced with 189 μL McCoys media, supplemented with 0.1% BSA (ICN Biomedicals, Inc., Costa Mesa, Calif.). Compounds can be prepared as either 10 mM or 0.5 mM stock solutions in DMSO, and serially diluted 3 fold in a 10-point dose-response curve to give final concentrations that are 200-fold greater than the desired final test concentration. Aliquots (1 μL) of serially-diluted compounds can be transferred to 96 well tissue culture plates containing the HCT 116 cells. […] As a maximum response control, wells can contain 0.5% DMSO in place of compound. The plates can be mixed at 700 rpm for 2 min to ensure even distribution of the test compound and incubated for 2 hours at 37° C. Cells can then be stimulated with insulin-like growth factor 1 (Sigma, St Louis, Mo.) at final concentration of 100 ng/ml for 15 minutes at 37° C. The media can then be removed and the cells treated with 80 μL cell-lysis buffer (MSD) containing a cocktail of protease and phosphatase inhibitors for one hour at 4° C.
25 μL Cell lysate can then be transferred to pre-blocked MSD assay plates pre-coated with a capture antibody specific for Akt, and the plates can be incubated for 2 hours at room temperature. The cell lysates can then be removed and plates can then be washed four times with 200 μl per well of Tris wash buffer (500 mM Tris, PH 7.5, 1.5 M NaCl, 0.2% Tween-20). Subsequently cells can be incubated for 1 hour at room temperature with a 25 μL solution containing the detection antibody, anti-phospho Akt (Ser 473) labeled with an electrochemiluminescent compound (Meso Scale Discovery SULPHO-TAG™ label, MSD, Gaithersburg, Md.). The detection antibody can be removed and plates can then be washed four times with 200 μL per well of Tris wash buffer. An aliquot of 150 μL of diluted MSD read buffer can then be applied to each well, and the electrochemiluminescent signal can be measured using a MSD SECTOR™ plate reader (Meso Scale Discovery, Gaithersburg, Md.). This instrument measures the intensity of emitted light to determine a quantitative measure of phosphorylated Akt in each well. The dose-response data obtained with each compound can be analyzed and the IC50 inhibition of Akt phosphorylation at Ser473 can be calculated.
Activity data for the compounds tested in the PI3K cell based Akt assay is provided in Table 1 under the column heading HCT116 Cell.

T1 sequence (P42338 whole entry): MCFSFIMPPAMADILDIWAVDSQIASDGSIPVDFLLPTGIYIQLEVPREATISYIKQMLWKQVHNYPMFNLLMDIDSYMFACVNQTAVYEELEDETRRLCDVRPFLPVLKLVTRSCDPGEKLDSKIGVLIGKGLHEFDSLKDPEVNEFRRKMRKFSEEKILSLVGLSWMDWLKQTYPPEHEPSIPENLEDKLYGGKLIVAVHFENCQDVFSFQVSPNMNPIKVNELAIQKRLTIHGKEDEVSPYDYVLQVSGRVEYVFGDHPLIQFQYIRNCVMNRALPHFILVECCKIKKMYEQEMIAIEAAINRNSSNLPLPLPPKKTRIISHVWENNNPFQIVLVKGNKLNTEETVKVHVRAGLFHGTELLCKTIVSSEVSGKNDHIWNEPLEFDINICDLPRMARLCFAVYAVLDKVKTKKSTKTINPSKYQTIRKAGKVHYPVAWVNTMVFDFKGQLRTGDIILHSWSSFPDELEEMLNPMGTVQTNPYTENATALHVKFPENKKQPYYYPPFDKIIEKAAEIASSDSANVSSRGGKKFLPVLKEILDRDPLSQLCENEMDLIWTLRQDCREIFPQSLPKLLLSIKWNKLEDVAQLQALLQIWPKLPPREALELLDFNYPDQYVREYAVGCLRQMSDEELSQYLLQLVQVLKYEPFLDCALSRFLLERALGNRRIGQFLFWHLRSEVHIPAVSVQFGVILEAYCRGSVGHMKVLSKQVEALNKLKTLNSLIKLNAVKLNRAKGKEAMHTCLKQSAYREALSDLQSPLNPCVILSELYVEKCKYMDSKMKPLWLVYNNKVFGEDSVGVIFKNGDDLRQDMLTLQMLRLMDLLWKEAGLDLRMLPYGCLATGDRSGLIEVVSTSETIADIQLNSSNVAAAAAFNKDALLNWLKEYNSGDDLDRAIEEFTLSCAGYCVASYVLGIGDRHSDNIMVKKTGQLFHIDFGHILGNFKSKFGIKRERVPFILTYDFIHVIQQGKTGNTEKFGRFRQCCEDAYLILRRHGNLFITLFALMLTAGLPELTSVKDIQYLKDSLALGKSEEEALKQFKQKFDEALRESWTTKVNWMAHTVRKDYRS
T1 sequence (P27986 whole entry partner): as the sequence (P27986 whole entry partner) above

SMILES | IC50 (PI3Kβ) [µM] | IC50 (PI3Kα) [µM] | IC50 [1] [µM]
O=S(=O)(Nc1cc(-c2ccc3nnccc3c2)cnc1Cl)c1ccc(F)cc1 [Example 37, N-(2-chloro-5-(6-cinnolinyl)-3-pyridinyl)-4-fluorobenzenesulfonamide] | 0.212 | 0.0783 | 
CS(=O)(=O)Nc1cc(-c2ccc3nccc(Cl)c3c2)cnc1Cl [Example 9, N-(2-chloro-5-(4-chloro-6-quinolinyl)-3-pyridinyl)methanesulfonamide] | 0.052 | 0.0142 | 2.06
O=S(=O)(Nc1cc(-c2ccc3ncccc3c2)cnc1Cl)c1ccc(F)cc1 [Example 7, N-(2-chloro-5-(6-quinolinyl)-3-pyridinyl)-4-fluorobenzenesulfonamide] | 0.0277 | 0.0099 | 1.3
O=S(=O)(Nc1cc(-c2ccc3nccc(N4CCOCC4)c3c2)cnc1Cl)c1c(Cl)cccc1Cl [Example 34, 2,6-dichloro-N-(2-chloro-5-(4-(4-morpholinyl)-6-quinolinyl)-3-pyridinyl)benzenesulfonamide] | 0.0359 | 0.0065 | 0.0376
COc1cnc2ccc(-c3cnc(Cl)c(NS(C)(=O)=O)c3)cc2c1 [Example 10, N-(2-chloro-5-(3-methoxy-6-quinolinyl)-3-pyridinyl)methanesulfonamide] | 0.166 | 0.0424 | 0.348
CN(C)c1cc(-c2ccc3ncccc3c2)cnc1Cl [Example 13, 2-chloro-N,N-dimethyl-5-(6-quinolinyl)-3-pyridinamine] |  | 1.12 | 
O=S(=O)(Nc1cc(-c2ccc3ncc(N4CCNCC4)nc3c2)cnc1Cl)c1ccc(F)cc1 [Example 72, N-(2-chloro-5-(3-(1-piperazinyl)-6-quinoxalinyl)-3-pyridinyl)-4-fluorobenzenesulfonamide] | 0.01 | 0.0049 | 0.0168
CC(=O)N1CCN(c2cnc3ccc(-c4cnc(Cl)c(NS(=O)(=O)c5ccc(F)cc5)c4)cc3n2)CC1 [Example 56, N-(5-(3-(4-acetyl-1-piperazinyl)-6-quinoxalinyl)-2-chloro-3-pyridinyl)-4-fluorobenzenesulfonamide] | 0.0318 | 0.0057 | 0.0236
CC(C)(C)OC(=O)N1CCCC(CNc2cnc3ccc(-c4cnc(Cl)c(NS(=O)(=O)c5ccc(F)cc5)c4)cc3n2)C1 (stereo not shown) [Example 59, tert-butyl 3-(((7-(6-chloro-5-(((4-fluorophenyl)sulfonyl)amino)-3-pyridinyl)-2-quinoxalinyl)amino)methyl)-1-piperidinecarboxylate] | 0.0225 | 0.0031 | 0.136
CC(C)(C)C(=O)NCc1cc(-c2ccc3nccc(N4CCOCC4)c3c2)cnc1Cl [Example 17, N-((2-chloro-5-(4-(4-morpholinyl)-6-quinolinyl)-3-pyridinyl)methyl)-2,2-dimethylpropanamide] | 27.4 | 3.11 | 
CC(C)N1CCN(c2cnc3ccc(-c4cnc(Cl)c(NS(=O)(=O)c5ccc(F)cc5)c4)cc3n2)CC1 [Example 21, N-(2-chloro-5-(3-(4-(1-methylethyl)-1-piperazinyl)-6-quinoxalinyl)-3-pyridinyl)-4-fluorobenzenesulfonamide] |  | 0.0054 | 0.0115
O=S(=O)(Nc1cc(-c2ccc3cccnc3c2)cnc1Cl)c1ccc(F)cc1 [Example 18, N-(2-chloro-5-(7-quinolinyl)-3-pyridinyl)-4-fluorobenzenesulfonamide] | 7.7 | 1.97 | 
O=S(=O)(Nc1cc(-c2cccc3cnncc23)cnc1Cl)c1ccc(F)cc1 [Example 39, N-(2-chloro-5-(5-phthalazinyl)-3-pyridinyl)-4-fluorobenzenesulfonamide] | 4.12 | 1.9 | 

Other lines, results leading:

IC50 (PI3Kβ) [µM] | IC50 (PI3Kα) [µM] | IC50 [1] [µM] | SMILES
0.0648 | 0.0169 | 5.04 | Nc1nc2ccc(-c3cnc(Cl)c(NS(=O)(=O)c4ccc(F)cc4)c3)cc2[nH]c1=O [Example 43, N-(5-(2-amino-3-oxo-3,4-dihydro-6-quinoxalinyl)-2-chloro-3-pyridinyl)-4-fluorobenzenesulfonamide]
2.46 | 0.179 |  | CN(C)c1cc(-c2ccc3nccc(N4CCOCC4)c3c2)cnc1Cl [Example 51, 2-chloro-N,N-dimethyl-5-(4-(4-morpholinyl)-6-quinolinyl)-3-pyridinamine]
2.49 | 0.0954 |  | CNc1ccc2cc(-c3cnc(Cl)c(NS(=O)(=O)c4ccc(OC)cc4)c3)ccc2n1 [Example 48, N-(2-chloro-5-(2-(methylamino)-6-quinolinyl)-3-pyridinyl)-4-methoxybenzenesulfonamide]
5.61 | 2.84 |  | O=S(=O)(Nc1cc(-c2cnc3ncccc3c2)cnc1Cl)c1ccc(F)cc1 [Example 44, N-(2-chloro-5-(1,8-naphthyridin-3-yl)-3-pyridinyl)-4-fluorobenzenesulfonamide]
4.22 | 0.294 |  | CC(c1ccccc1)N1CCN(c2ccnc3ccc(-c4cnc(Cl)c(N(C)C)c4)cc23)CC1 (stereo not shown) [Example 53, 2-chloro-N,N-dimethyl-5-(4-(4-(1-phenylethyl)-1-piperazinyl)-6-quinolinyl)-3-pyridinamine]
0.0597 | 0.0192 | 0.0646 | COc1ccc(S(=O)(=O)Nc2cc(-c3ccc4nc(NC(C)=O)ccc4c3)cnc2Cl)cc1 [Example 45, N-(6-(6-chloro-5-(((4-methoxyphenyl)sulfonyl)amino)-3-pyridinyl)-2-quinolinyl)acetamide]
0.0358 | 0.0081 | 0.0434 | COCC1CCCN1c1cnc2ccc(-c3cnc(Cl)c(NS(=O)(=O)c4ccc(F)cc4)c3)cc2n1 (stereo not shown) [Example 68, N-(2-chloro-5-(3-(2-(methoxymethyl)-1-pyrrolidinyl)-6-quinoxalinyl)-3-pyridinyl)-4-fluorobenzenesulfonamide]
0.0302 | 0.0041 | 0.0228 | CC1CN(c2ccnc3ccc(-c4cnc(Cl)c(NS(=O)(=O)c5ccc(F)cc5)c4)cc23)CC(C)O1 (stereo not shown) [Example 30, N-(2-chloro-5-(4-(2,6-dimethyl-4-morpholinyl)-6-quinolinyl)-3-pyridinyl)-4-fluorobenzenesulfonamide]
26.7 | 3.53 |  | NCc1cc(-c2ccc3nccc(N4CCOCC4)c3c2)cnc1Cl [Example 16, 1-(2-chloro-5-(4-(4-morpholinyl)-6-quinolinyl)-3-pyridinyl)methanamine]
0.0339 | 0.0062 |  | O=S(=O)(Nc1cc(-c2ccc3nccc(N4CCN(Cc5ccccc5)CC4)c3c2)cnc1Cl)c1ccc(F)cc1 [Example 28, N-(5-(4-(4-benzyl-1-piperazinyl)-6-quinolinyl)-2-chloro-3-pyridinyl)-4-fluorobenzenesulfonamide]
0.698 | 0.899 |  | O=S(=O)(Nc1cc(-c2ccc3cnncc3c2)cnc1Cl)c1ccc(F)cc1 [Example 40, N-(2-chloro-5-(6-phthalazinyl)-3-pyridinyl)-4-fluorobenzenesulfonamide]
5.42 | 1.13 |  | OCc1cc(-c2ccc3nccc(N4CCOCC4)c3c2)cnc1Cl [Example 14, (2-chloro-5-(4-(4-morpholinyl)-6-quinolinyl)-3-pyridinyl)methanol]
2.24 | 0.43 |  | CN(C)c1cc(-c2ccc3nccc(Cl)c3c2)cnc1Cl [Example 52, 2-chloro-5-(4-chloro-6-quinolinyl)-N,N-dimethyl-3-pyridinamine]
3.67 | 1.39 |  | CC(=O)OCc1cc(-c2ccc3nccc(N4CCOCC4)c3c2)cnc1Cl [Example 15, (2-chloro-5-(4-(4-morpholinyl)-6-quinolinyl)-3-pyridinyl)methyl acetate]
